Measurements as given in US5980913A, “Peptides having immunomodulatory activity” (Biochem Pharma, Inc., priority 1994, dated 1999).
Where a SMILES comes first, the peptide text is derived from it. [ ]: non-standard residue; d: D form.

Columns and labels:
[1] = test system: P815 target cells; assay: Cytotoxic T lymphocytes (CTL) assay, 51Cr release, after 5 days mixed culture with drug; assay type: cell-based, C57BL/6 mice; settings: 10^-9 M
Description: 1. Cytotoxic T Lymphocytes (CTL) Mixed Lymphocyte Reaction (MLR) and Mitogenic Response Assays
The protocols used are described in Hudson L., Haay F., Pratical immunology, 3rd edition, Blackwell, Scientific publications, Oxford 1989, p. 158-162, and p.447.
Lymphocytes were isolated from C57BL/6 mice and DBA/2 mice in accordance to techniques well known in the art. Cell concentration was adjusted to 10×10^6 cell/ml for each assay. The cells isolated from DBA/2 mice were irradiated with 3000 Rads.
In a 6 well plate, each well was set up with:
The cells were incubated for five days at 37° C. in 5% CO2, after which CTL and MLR assays were performed.
a) Cytotoxic T Lymphocytes (CTL)
P815 target cells were labelled with Cr^51 (0.1 mCi). After labelling, the cells were washed three times and resuspended to a concentration of 5×10^4 cells/ml in media. p T cells were then counted and diluted to obtain a concentration of 2.5×10^6 cells/ml, and then further diluted to obtain the following effector:target ratios:
100 μl of target cells+100 μl of CTLs were incubated for 4 hours. In parallel wells, 100 μl of target cells+100 μl of media were incubated for spntaneous release. After incubation, cells were centrifuged and 100 μl of supernatant was then counted using a gamma counter.
Results are expressed as % specific ^51 Cr release= [formula] where ER=experimental release, SR=spontaneous releaase, and
0 represents less than 20%, + represents 20-40%, ++ represents 40-60%, +++ represent 60-80%, and ++++ represents 80% and over.

[2] = test system: blood cell subsets (cell surface antigens); assay: In vivo/ex vivo immunophenotyping in the blood, mice treated 4 consecutive days, blood taken on day 5; design: species or system C57BL/6 mice
Method: C57BL.backslash.6 mice are treated with 0, 50, 100, 200, and 300 mg/kg of drug (in saline) for 4 consecutive days. Blood is taken by cardiac puncture on day 5, and the lymphocytes are isolated from spleen in the following manner:
1. Immunophenotyping (blood and spleen)
Cell immunophenotyping is performed on blood and spleen. The following cell surface antigens are analyzed:
CD4 (T helper/inducer, binds class II-restricted T cells);
CD8 (cytotoxic T cells, CTL adhesion);
MAC-1 (monocyte/macrophage);
NK (natural killer cells);
CD45 (all leukocytes, protein tyrosine phosphatase).

For `NCCCC[C@@H](N)C(=O)N[C@@H](CC(N)=O)C(=O)N1CCC[C@H]1C(=O)N[C@@H](Cc1ccc(O)cc1)C(=O)O` [PEPTIDE #5, H-(D-Lys)-Asn-Pro-Tyr-OH] (H-[dK]NPY-OH), the “CTL, % augmentation compared to IL-2 (IL-2 is 100%)” value [1] was “++++ (++++ represents 80% and over)”, the “change of relative percentage of T cells (TCR, CD4+ and CD8+ cell surface antigen) (in words)” value [2] was “reduced in a significant manner” and the “CD4+ CD8+ cell subset, relative percentage, MEAN” value ([2]; 50 mg/kg, first assay) was 2.03. For the same molecule, the “CD4+ CD8- cell subset, relative percentage, MEAN” value ([2]; 50 mg/kg, first assay) was 18.15, the “CD4+ CD11b+ cell subset, relative percentage, MEAN” value ([2]; 50 mg/kg, first assay) was 1.18 and the “CD4+ CD11b- cell subset, relative percentage, MEAN” value ([2]; 50 mg/kg, first assay) was 22.55. For the same molecule, the “CD4- CD8+ cell subset, relative percentage, MEAN” value ([2]; 50 mg/kg, first assay) was 5.15, the “CD4- CD8- cell subset, relative percentage, MEAN” value ([2]; 50 mg/kg, first assay) was 74.68 and the “CD4- CD11b+ cell subset, relative percentage, MEAN” value ([2]; 50 mg/kg, first assay) was 12.08. For the same molecule, the “CD4- CD11b- cell subset, relative percentage, MEAN” value ([2]; 50 mg/kg, first assay) was 64.15, the “CD45+ CD4+ cell subset, relative percentage, MEAN” value ([2]; 50 mg/kg, first assay) was 17.00 and the “CD45+ CD4- cell subset, relative percentage, MEAN” value ([2]; 50 mg/kg, first assay) was 57.68. The “CD45+ CD8+ cell subset, relative percentage, MEAN” value ([2]; 50 mg/kg, first assay) was 6.53, the “CD45+ CD8- cell subset, relative percentage, MEAN” value ([2]; 50 mg/kg, first assay) was 62.48 and the “CD45- CD4+ cell subset, relative percentage, MEAN” value ([2]; 50 mg/kg, first assay) was 3.15. The “CD45- CD4- cell subset, relative percentage, MEAN” value ([2]; 50 mg/kg, first assay) was 22.15, the “CD45- CD8- cell subset, relative percentage, MEAN” value ([2]; 50 mg/kg, first assay) was 30.35 and the “CD45- CDE8+ cell subset, relative percentage, MEAN” value ([2]; 50 mg/kg, first assay) was 0.68. The “Ly5(B) cell subset, relative percentage, MEAN” value ([2]; 50 mg/kg, first assay) was 57.88, the “NK+ CD3+ cell subset, relative percentage, MEAN” value ([2]; 50 mg/kg, first assay) was 2.13 and the “NK+ CD3- cell subset, relative percentage, MEAN” value ([2]; 50 mg/kg, first assay) was 5.70. For the same molecule, the “NK- CD3+ cell subset, relative percentage, MEAN” value ([2]; 50 mg/kg, first assay) was 33.30, the “NK- CD3- cell subset, relative percentage, MEAN” value ([2]; 50 mg/kg, first assay) was 58.93 and the “TCR(T) cell subset, relative percentage, MEAN” value ([2]; 50 mg/kg, first assay) was 31.53. The “CD4+ CD8+ cell subset, relative percentage, MEAN” value ([2]; 50 mg/kg, second assay) was 0.43, the “CD4+ CD8- cell subset, relative percentage, MEAN” value ([2]; 50 mg/kg, second assay) was 20.65 and the “CD4+ CD11b+ cell subset, relative percentage, MEAN” value ([2]; 50 mg/kg, second assay) was 0.13. The “CD4+ CD11b- cell subset, relative percentage, MEAN” value ([2]; 50 mg/kg, second assay) was 15.38, the “CD4- CD8+ cell subset, relative percentage, MEAN” value ([2]; 50 mg/kg, second assay) was 7.70 and the “CD4- CD8- cell subset, relative percentage, MEAN” value ([2]; 50 mg/kg, second assay) was 71.20. The “CD4- CD11b+ cell subset, relative percentage, MEAN” value ([2]; 50 mg/kg, second assay) was 6.73, the “CD4- CD11b- cell subset, relative percentage, MEAN” value ([2]; 50 mg/kg, second assay) was 77.78 and the “CD45+ CD4+ cell subset, relative percentage, MEAN” value ([2]; 50 mg/kg, second assay) was 18.48. The “CD45+ CD4- cell subset, relative percentage, MEAN” value ([2]; 50 mg/kg, second assay) was 68.23, the “CD45+ CD8+ cell subset, relative percentage, MEAN” value ([2]; 50 mg/kg, second assay) was 8.10 and the “CD45+ CD8- cell subset, relative percentage, MEAN” value ([2]; 50 mg/kg, second assay) was 79.70. For the same molecule, the “CD45- CD4+ cell subset, relative percentage, MEAN” value ([2]; 50 mg/kg, second assay) was 2.25, the “CD45- CD4- cell subset, relative percentage, MEAN” value ([2]; 50 mg/kg, second assay) was 11.05 and the “CD45- CD8+ cell subset, relative percentage, MEAN” value ([2]; 50 mg/kg, second assay) was 0.03. The “CD45- CD8- cell subset, relative percentage, MEAN” value ([2]; 50 mg/kg, second assay) was 12.15, the “Ly5(B) cell subset, relative percentage, MEAN” value ([2]; 50 mg/kg, second assay) was 58.6 and the “NK+ CD3+ cell subset, relative percentage, MEAN” value ([2]; 50 mg/kg, second assay) was 3.00. The “NK+ CD3- cell subset, relative percentage, MEAN” value ([2]; 50 mg/kg, second assay) was 7.88, the “NK- CD3+ cell subset, relative percentage, MEAN” value ([2]; 50 mg/kg, second assay) was 31.05 and the “NK- CD3- cell subset, relative percentage, MEAN” value ([2]; 50 mg/kg, second assay) was 58.10. The “TCR(T) cell subset, relative percentage, MEAN” value ([2]; 50 mg/kg, second assay) was 35.73, the “CD4+ CD8+ cell subset, relative percentage, MEAN” value ([2]; 100 mg/kg, first assay) was 2.10 and the “CD4+ CD8- cell subset, relative percentage, MEAN” value ([2]; 100 mg/kg, first assay) was 17.90. The “CD4+ CD11b+ cell subset, relative percentage, MEAN” value ([2]; 100 mg/kg, first assay) was 1.10, the “CD4+ CD11b- cell subset, relative percentage, MEAN” value ([2]; 100 mg/kg, first assay) was 20.30 and the “CD4- CD8+ cell subset, relative percentage, MEAN” value ([2]; 100 mg/kg, first assay) was 6.03. The “CD4- CD8- cell subset, relative percentage, MEAN” value ([2]; 100 mg/kg, first assay) was 73.95, the “CD4- CD11b+ cell subset, relative percentage, MEAN” value ([2]; 100 mg/kg, first assay) was 11.03 and the “CD4- CD11b- cell subset, relative percentage, MEAN” value ([2]; 100 mg/kg, first assay) was 67.65. The “CD45+ CD4+ cell subset, relative percentage, MEAN” value ([2]; 100 mg/kg, first assay) was 16.78, the “CD45+ CD4- cell subset, relative percentage, MEAN” value ([2]; 100 mg/kg, first assay) was 58.75 and the “CD45+ CD8+ cell subset, relative percentage, MEAN” value ([2]; 100 mg/kg, first assay) was 7.10. The “CD45+ CD8- cell subset, relative percentage, MEAN” value ([2]; 100 mg/kg, first assay) was 63.45, the “CD45- CD4+ cell subset, relative percentage, MEAN” value ([2]; 100 mg/kg, first assay) was 3.25 and the “CD45- CD4- cell subset, relative percentage, MEAN” value ([2]; 100 mg/kg, first assay) was 21.23. The “CD45- CD8- cell subset, relative percentage, MEAN” value ([2]; 100 mg/kg, first assay) was 28.38, the “CD45- CDE8+ cell subset, relative percentage, MEAN” value ([2]; 100 mg/kg, first assay) was 1.03 and the “Ly5(B) cell subset, relative percentage, MEAN” value ([2]; 100 mg/kg, first assay) was 58.73. The “NK+ CD3+ cell subset, relative percentage, MEAN” value ([2]; 100 mg/kg, first assay) was 2.43, the “NK+ CD3- cell subset, relative percentage, MEAN” value ([2]; 100 mg/kg, first assay) was 6.00 and the “NK- CD3+ cell subset, relative percentage, MEAN” value ([2]; 100 mg/kg, first assay) was 33.58. For the same molecule, the “NK- CD3- cell subset, relative percentage, MEAN” value ([2]; 100 mg/kg, first assay) was 57.95 and the “TCR(T) cell subset, relative percentage, MEAN” value ([2]; 100 mg/kg, first assay) was 32.23.
